Assay results from paper PMC12402003 (Frontiers in Nutrition, 2025).

Assays:
[1] = system: HepG2 cells; experiment: MTT cell viability assay in HepG2 cells; assay type: cell-based, human; details: 24 h; for effect on cell viability: 50 μM; for cytotoxicity: 100 μM
Protocol: Cell culture: […] Subsequently, the supernatant was removed and 200 μL of MTT solution (0.1 mg/mL) was added to each well to incubate for an additional 4 h (200 μL for Caco-2 cells, 100 μL for HepG2 cells, both at a concentration of 0.1 mg/mL). Finally, formazan crystals were completely dissolved in DMSO in a shaker for 10 min and the absorbance was measured at a wavelength of 490 nm using a microplate absorbance reader (FLUOstar Omera, BMG Labtech, Germany). Cell viability was determined using the following equation: Cell viability (%) = (OD sample/OD control) × 100, where OD is the optical density. The absorbance values for drug fractions […], catechin, and […]-catechin) were compared to those of untreated culture (control). Each treatment was set up in triplicate.

[2] = system: Caco-2 cell monolayers; experiment: Bidirectional transport across Caco-2 cell monolayer; assay type: in vitro ADME, human; details: for efflux rate (BL to AP side) / absorption rate (AP to BL side): 50 μM; for efflux rate (BL to AP side): up to 150 min; for absorption rate (AP to BL side): within 150 min; for ER (efflux rate) / Papp (AP → BL) / Papp (BL → AP): 50 μmol/L, no inhibitor; for transport mechanism into the small intestine: inferred from ER < 1 and inhibitor study
Protocol: The cells were seeded at a density of approximately 10^5 cells/cm^2 on TranswellTM filter (Corning Inc., Lowell, MA) and cultured for 21 d before use. Cell monolayer integrity was controlled by the measurement of trans-epithelial electrical resistance (TEER) with an EVOM epithelial voltammeter equipped with an electrode (World Precision Instruments, Sarasota, FL, United States). […] (a) R(%)=CBL×VBL/CAP×VAP×100 In this, R represents the absorption rate (as a percentage); CBL is the anthocyanin concentration of the BL side (in μM); VBL is the volume of anthocyanins from the BL (in L); CAP is the initial anthocyanin concentration of the AP side (in μM), and VAP is the volume of anthocyanins in the AP chamber (in L). The absorption rate of anthocyanins from BL to AP is calculated using the following Equation b: (b) R(%)=CAP×VAP/CBL×VBL×100 In this, R represents the absorption rate (as a percentage); CAP is the anthocyanin concentration from the AP side (in μM); VAP is the volume of anthocyanins in the AP chamber (in mL); CBL is the initial concentration from the BL side (in μM) and VBL is the volume of anthocyanins in the BL chamber (in L).

[3] = system: Caco-2/HepG2 co-culture model; experiment: Lipid metabolites and AST/ALT in OA-induced Caco-2/HepG2 co-culture model; assay type: cell-based, human; details: for reduction in TC content: HepG2 on BL side after transport by Caco-2, 50 μM
Protocol: Caco-2 and HepG2 cells were cultured separately at 37°C with 5% CO2 in DMEM medium containing 10% fetal bovine serum, 50 U/mL penicillin, and 50 μg/mL streptomycin. Caco-2 cells were cultured in 96-well plates for 24 h and harvested with trypsin–EDTA to seed to the AP side (1 × 10^5 cells/mL, 500 μL) in monolayers. 1,500 μL of Minimum Essential Medium (MEM) was simultaneously added to the BL compartment. HepG2 cells were seeded to the BL compartment at the day 15. The total culture period was 18 d.
The co-culture cells were collected by the previous method from the above mentioned, and the cells were lysed on ice for 30 min using IP cell lysis buffer (20 mM Tris pH 7.5, 200 mM NaCl, 10% glycerol, 0.2 mM DTT, 0.1 mM EDTA, 1 mM protease inhibitor). The contents of TG, T-CHO, LDL-C, HDL-C, AST, and ALT from HepG2 were measured following the test kit instructions. Intracellular protein content was measured to calibrate the levels of relevant metabolites using the BCA Protein Quantitation Kit (Beyotime Biotechnology).

[4] = system: Fasn; experiment: Western blot of Fasn protein in Caco-2/HepG2 co-culture; assay type: cell-based, human; details: OA-induced co-culture, 50 μM, 24 h; compared vs. OA
Protocol: (§1) Cells from the co-culture model were lysed and supernatants were collected. The protein concentrations were determined using the BCA Protein Quantitation Kit. Then electrophoresis of samples was conducted using a SDS-PAGE kit (Beyotime Biotechnology) following the manufacturer’s instructions and transferred to poly-vinylidene difluoride (PVDF) membrane. Next, membranes were incubated in 5% nonfat milk to block non-specific antibody binding for 30 min at room temperature and followed by incubating with primary antibodies and secondary antibodies. Chemiluminescence based-images of the blots were acquired using ImageQuant LAS 500 system (GE, United States). Protein bands were quantified using ImageJ (version 1.53a) software. The changes in expression levels of these proteins detected finally are used to evaluate the sample’s effect on lipid metabolism.

[5] = system: Fabp4; experiment: Western blot of Fabp4 protein in Caco-2/HepG2 co-culture; assay type: cell-based, human; details: OA-induced co-culture, 50 μM, 24 h; compared vs. OA
Protocol: as §1

[6] = system: HepG2 cells; experiment: TG and TC content in OA-induced high-fat HepG2 cells; assay type: cell-based, human; details: OA-induced high-fat HepG2 cells, 50 μM, 24 h
Protocol: For high fat HepG2 model: […] Afterwards, cells were harvested and lysed. […] For TG and TC assay: […] The medium was removed and the cells were washed twice with PBS. The levels of triglycerides (TG) and total cholesterol (TC) in the cells were determined according to the instructions of test kits.

[7] = system: Srebp-1c; experiment: Western blot of Srebp-1c protein in Caco-2/HepG2 co-culture; assay type: cell-based, human; details: OA-induced co-culture, 50 μM, 24 h; compared vs. OA
Protocol: as §1

Compound	effect on cell viability [1]	cytotoxicity [1]	efflux rate (BL to AP side) [2] [%]	absorption rate (AP to BL side) [2] [%]	ER (efflux rate) ([2]; 30 min)	Papp (AP → BL) ([2]; 30 min)	Papp (BL → AP) ([2]; 30 min)	ER (efflux rate) ([2]; 60 min)	Papp (AP → BL) ([2]; 60 min)	Papp (BL → AP) ([2]; 60 min)	ER (efflux rate) ([2]; 90 min)	Papp (BL → AP) ([2]; 90 min)	ER (efflux rate) ([2]; 120 min)	Papp (AP → BL) ([2]; 120 min)	Papp (BL → AP) ([2]; 120 min)	ER (efflux rate) ([2]; 150 min)	Papp (AP → BL) ([2]; 150 min)	Papp (BL → AP) ([2]; 150 min)	transport mechanism into the small intestine [2]	reduction of ALT level [3]	also measured
O.Oc1cc(O)c2c(c1)O[C@H](c1ccc(O)c(O)c1)[C@@H](O)C2 [catechin]	no significant effects	comparable cytotoxicity	68.71	73.41	0.77	7.9 ± 0.26^Ba ×10^−5 cm /s	6.1 ± 2.78^Aa ×10^−5 cm /s	0.55	4.6 ± 0.43^Ab* ×10^−5 cm /s	2.5 ± 0.28^Ab ×10^−5 cm /s	0.52	1.6 ± 0.11^Ab ×10^−5 cm /s	0.51	2.5 ± 0.19^Ad* ×10^−5 cm /s	1.31 ± 0.13^Ab ×10^−5 cm /s	0.48	2.2 ± 0.52^Ad* ×10^−5 cm /s	1.0 ± 0.03^Ab ×10^−5 cm /s	passive diffusion	not observed	reduction of AST level [3]: not observed; reduction in TC content [3]: 7.69%; Fasn protein expression level (densitometry) [4]: 1.11; Fabp4 protein expression level (densitometry) [5]: 1.23
OC[C@H]1O[C@@H](Oc2cc3c(O)cc(O)cc3[o+]c2-c2ccc(O)c(O)c2)[C@H](O)[C@@H](O)[C@@H]1O [C3G, Cyanidin-3-O-glucoside]	no significant effects	comparable cytotoxicity	15.41	22.47	0.49	3.9 ± 1.32^Aa* ×10^−5 cm /s	1.8 ± 0.14^Ba ×10^−5 cm /s	0.56	1.8 ± 0.07^Cb* ×10^−5 cm /s	1.0 ± 0.17^Bb ×10^−5 cm /s	0.53	0.6 ± 0.04^Cc ×10^−5 cm /s	0.57	0.9 ± 0.03^Cb* ×10^−5 cm /s	0.5 ± 0.08^Ccd ×10^−5 cm /s	0.54	0.7 ± 0.03^Bb* ×10^−5 cm /s	0.4 ± 0.04^Cde ×10^−5 cm /s	passive diffusion	not observed	Papp (AP → BL) ([2]; 90 min): 1.1 ± 0.02^Cb* ×10^−5 cm /s; reduction of TG content [6]: 21%; reduction of AST level [3]: not observed; reduction of OA-induced LDL-C increase ([3]; 50 μM): did not change; reduction in TC content [3]: 7.69%; Fabp4 protein expression level (densitometry) [5]: 1.23; Srebp-1c protein expression level (densitometry) [7]: 1.32
